Where two headings read alike, the source gives them in different places.
Columns and labels:
[1] = system: advanced solid malignancies with PIK3CA alterations; parameters: method as in PMID 29401002; details: single-agent alpelisib, once daily; first-in-human phase I; cited from earlier work
[2] = Pharmacokinetics of alpelisib and capecitabine in plasma (LC-MS/MS, non-compartmental); type: in vivo, human; details: for half-life / AUC(0-t) / Cmax: mean (range); for AUC(0-t): read-out: AUC0-6h; for AUC: range across dose escalation (dose levels 0 to 2), read-out: area under the concentration-time-curve (AUC)
Description: The pharmacokinetic (PK) analysis was conducted in all patients who received at least one dose of alpelisib and capecitabine combination therapy. Blood samples were collected at specified time points, including pre-dose, 1, 2, 4, and 6 hours post-dose, on day 1 of cycle 1. Measurements of alpelisib and capecitabine were carried out with a validated LC-MS/MS assay. PK parameters, including maximum plasma concentration (Cmax), time to reach maximum plasma concentration (tmax), area under the plasma concentration-time curve (AUC), and elimination half-life (t1/2), were calculated using non-compartmental methods. […] The data were presented as the mean (range) and standard deviation (SD).

[3] = parameters: method as in PMID 21332655; details: monotherapy, salvage regimens in Korea, retrospective data; cited from earlier work
[4] = human, plasma, oral, Dose level 0 (n=3): alpelisib 200mg+capecitabine 1000mg/m^2, day 1 of cycle 1
[5] = human, plasma, oral, Dose level 0 (n=3): alpelisib 200mg+capecitabine 1000mg/m^2, plasma, day 1 of cycle 1
[6] = human, plasma, oral, Dose level 1 (n=6): alpelisib 300mg+capecitabine 1000mg/m^2, day 1 of cycle 1
[7] = human, plasma, oral, Dose level 1 (n=6): alpelisib 300mg+capecitabine 1000mg/m^2, plasma, day 1 of cycle 1
[8] = human, plasma, oral, across dose levels 0, 1 and 2, read-out: time to reach peak concentration (tmax)

Tmax ([2]; human, plasma, oral, Dose level 1 (n=6): alpelisib 300mg+capecitabine 1000mg/m^2, day 1 of cycle 1, ± SD, read-out: tmax) | SMILES | MTD [1] | Tmax ([2]; Dose level 0 (n=3): alpelisib 200mg+capecitabine 1000mg/m^2, day 1 of cycle 1, ± SD) | Tmax ([2]; Dose level 1 (n=6): alpelisib 300mg+capecitabine 1000mg/m^2, day 1 of cycle 1, ± SD) | Alpelisib exposure (Cmax and AUC0-12) with concomitant capecitabine ([2]; co-administration in patients) | half-life [2, 4] | AUC(0-t) [2, 4] | Cmax [2, 5] | half-life [2, 6] | AUC(0-t) [2, 6] | Cmax [2, 7] | Tmax [2, 8] | AUC ([2]; human, plasma, oral) | disease control rate [3]
– | Cc1nc(NC(=O)N2CCC[C@H]2C(N)=O)sc1-c1ccnc(C(C)(C)C(F)(F)F)c1 [alpelisib] | 400 mg | 2 ± 0.6 h | 4 ± 1.8 h | unaffected | 6.5 h | 4930 ng·h/mL | 1170 ng/mL | 9.29 h | 5070 ng·h/mL | 1240 ng/mL | 2 to 4 h | 4930 to 8190 ng·h/mL | –
2 h | CCCCCOC(=O)Nc1nc(=O)n([C@@H]2O[C@H](C)[C@@H](O)[C@H]2O)cc1F [capecitabine] | – | – | – | – | 0.89 h | 2670 ng·h/mL | 2500 ng/mL | 0.63 h | 6000 ng·h/mL | 4160 ng/mL | 1 to 2 h | 2670 to 8710 ng·h/mL | 60%
